Legend:
MRP2 = MRP2 (Homo sapiens, UniProt Q92887); test: biochemical
UGT = test: Human hepatocyte UGT induction study, conversion of MPA to MPAG; type: cell-based; settings: 50 μM, 96 h treatment
Method: Cryopreserved human hepatocytes were recovered in a pre-warmed incubation medium, diluted to a viable cell density (∼0.7 × 10^6 cells/mL) using a plating medium, followed by the addition of 100 μL hepatocytes into each well of a collagen I-coated 96-well plate. The cell monolayer was formed after an overnight incubation period at 37°C under 5%CO2. The plating medium was then replaced with an incubation medium for further culture. On the second day, an incubation medium containing different concentrations of either compound, the inducer omeprazole (final concentration of 50 μM), or vehicle (0.1% [v/v] dimethyl sulfoxide [DMSO]). […] At the end of the incubation period, the medium was replaced with a substrate for UGT and MPA. Following a further incubation of 15 or 30 min at 37°C under 5% CO2, 100 μL of the reaction medium was transferred to 400 μL of ice-cold methanol containing internal standard (IS) to terminate the reaction. Finally, the supernatant was collected after centrifugation at 4,000 rpm for 10 min and analyzed for glucuronide formation using liquid chromatography-mass spectrometry (LC-MS).
The formation of glucuronide metabolites, as determined with LC-MS, was used to calculate the formation rate linked to enzyme activity according to Equation 1. Formation rate pmol/10^6 cells/min=amount of glucuronide metabolites formation pmol/number of cells 10^6 cells×incubation time min (1)
The percentage of enzyme activity relative to the NC (%) was determined using Equation 2. Relative enzyme activity % of NC=formation rate in the compound−treated group/that in NC×100 (2)

UGT1A1/1A3 = settings: 50 μM, 96 h treatment; 100 μM substrate, 30 min
UGT1A9/2B7 = settings: 50 μM, 96 h treatment; 100 μM substrate, 30 min

Chain of MRP2 (Q92887 whole entry): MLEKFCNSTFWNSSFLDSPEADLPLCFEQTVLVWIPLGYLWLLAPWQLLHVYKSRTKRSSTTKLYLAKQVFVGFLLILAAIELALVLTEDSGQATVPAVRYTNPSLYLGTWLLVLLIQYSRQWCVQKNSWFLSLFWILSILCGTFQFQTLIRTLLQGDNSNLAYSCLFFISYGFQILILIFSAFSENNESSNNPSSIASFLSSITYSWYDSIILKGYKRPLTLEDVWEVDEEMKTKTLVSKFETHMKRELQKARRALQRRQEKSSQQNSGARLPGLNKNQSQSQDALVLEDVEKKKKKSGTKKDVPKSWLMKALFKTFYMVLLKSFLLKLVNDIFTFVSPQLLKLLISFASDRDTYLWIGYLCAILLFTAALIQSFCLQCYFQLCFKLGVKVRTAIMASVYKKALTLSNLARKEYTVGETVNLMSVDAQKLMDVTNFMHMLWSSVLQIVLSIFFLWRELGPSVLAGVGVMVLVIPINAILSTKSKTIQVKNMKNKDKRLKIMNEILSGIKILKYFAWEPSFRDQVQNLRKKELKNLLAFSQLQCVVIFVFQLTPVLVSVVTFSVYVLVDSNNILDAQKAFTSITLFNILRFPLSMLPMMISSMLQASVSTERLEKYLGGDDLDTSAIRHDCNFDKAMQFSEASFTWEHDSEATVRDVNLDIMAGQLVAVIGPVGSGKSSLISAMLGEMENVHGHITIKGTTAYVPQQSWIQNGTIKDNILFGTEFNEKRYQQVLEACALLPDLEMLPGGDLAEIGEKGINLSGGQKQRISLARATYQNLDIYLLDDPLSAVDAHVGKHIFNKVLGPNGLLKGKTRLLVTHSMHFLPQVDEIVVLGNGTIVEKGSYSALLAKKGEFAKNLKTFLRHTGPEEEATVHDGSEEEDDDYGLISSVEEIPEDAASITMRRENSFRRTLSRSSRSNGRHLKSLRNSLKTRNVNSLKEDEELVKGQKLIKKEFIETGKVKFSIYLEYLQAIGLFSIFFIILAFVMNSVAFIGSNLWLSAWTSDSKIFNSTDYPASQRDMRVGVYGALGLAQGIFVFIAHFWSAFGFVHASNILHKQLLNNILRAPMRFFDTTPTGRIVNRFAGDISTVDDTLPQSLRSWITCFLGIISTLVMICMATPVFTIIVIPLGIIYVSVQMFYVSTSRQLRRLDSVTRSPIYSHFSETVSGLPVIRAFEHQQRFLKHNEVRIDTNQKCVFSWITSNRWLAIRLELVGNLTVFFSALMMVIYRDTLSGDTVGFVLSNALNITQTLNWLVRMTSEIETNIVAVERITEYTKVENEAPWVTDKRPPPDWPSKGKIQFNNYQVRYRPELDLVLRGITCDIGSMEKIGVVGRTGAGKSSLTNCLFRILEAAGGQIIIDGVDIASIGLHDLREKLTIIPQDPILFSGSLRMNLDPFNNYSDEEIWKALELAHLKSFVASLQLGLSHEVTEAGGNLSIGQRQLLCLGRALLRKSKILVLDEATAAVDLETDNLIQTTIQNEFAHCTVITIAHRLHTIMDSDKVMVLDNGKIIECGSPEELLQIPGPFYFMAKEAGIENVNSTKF

IC50 (MRP2)	Structure (SMILES)	formation of MPAG, % of NC (Mean) (UGT)	β-estradiol glucuronidation activity, % of NC (Mean) (UGT1A1/1A3)	4-trifluoromethyl-7-hydroxycoumarin glucuronidation activity, % of NC (Mean) (UGT1A9/2B7)
17.6 µM	CCc1oc2ccccc2c1C(=O)c1cc(Br)c(O)c(Br)c1 [benzbromarone]			
	COc1ccc2[nH]c([S+]([O-])Cc3ncc(C)c(OC)c3C)nc2c1 (stereo not shown) [omeprazole]	110 % of NC	243 % of NC	145 % of NC
